From US20190211020A1 (Agency for Science, Technology and Research, priority 2012, published 2019)
“Also recorded” adds a separate entry of the source. Like-named read-outs stand apart in the source and are kept apart here.

Columns and labels:
[1] = tested on: eIF4G levels in brain sections from Nlgn3 knock-out mice; assay: Immunoblot of eIF4G in brain slices of Nlgn3 knock-out mice; set-up: species or system mouse; details: 40 μM CGP57380 or 50 nM ETC7168
Description: (§1) For biochemical analyses mice were sacrificed by CO2 inhalation, the cerebellum dissected and rapidly placed in a vibratome chamber and sectioned at 300 μm in cold oxygenated aCSF (in mM: 125 NaCl, 2.5 KCl, 1 MgCl2, 2 CaCl2, 1.25 NaH2PO4, 20 Glucose, 26 NaHCO3, 95% O2/5% CO2). Slices obtained were maintained at 33° C. in oxygenated aCSF and treated with 40 μM CGP57380 or 50 nM ETC7168 for 45 mins and tissues were subsequently snap frozen in liquid nitrogen. Tissues were lysed in 25 mM Tris-HCl, 150 mM NaCl, 1% Triton, 0.2% SDS, 5 mM EDTA, 2 mM DTT, 1 mM NaF, 1 mM Na3VO4 containing protease inhibitor cocktail. The soluble fractions were analyzed by immunoblotting with primary antibodies for 24 hrs at 4° C. followed by detection with secondary antibodies for enhanced chemoluminescent detection. Impact of MNK inhibitors on autism-related behavior was tested in a knock-out mouse model for autism. Nlgn3 knock-out mouse model a human mutation identified in patients with autism^73-74. Compounds were applied in DMSO using intraperitoneal injection in adult male mice (2-4 months of age). Two injections were performed, the first 30 h and a second one 5 h before testing. Behavioral testing was performed using a well-accepted test for autism that consists of quantitative analysis of ultrasonic vocalizations emitted by male mice exposed to females in estrous^75. The apparatus consisted of an arena (40 cm×20 cm) surrounded by 30-cm-high walls made of grey plastic and equipped with a microphone and a video camera. Prior to testing, the estrous cycle of each female mouse was assessed and only females in estrous were kept for testing. Male mice were acclimatized for 3 min in the chamber. Subsequently a female in estrous was introduced in the arena, and ultrasonic vocalizations were recorded for 3 min using the Avisoft system (Avisoft Bioacoustics) with a frequency bandwidth of 30 kHz to 100 kHz. The number and length of ultrasonic vocalizations were quantified. All animal experiments were approved by the cantonal veterinary office Basel-Stadt, Switzerland.

[2] = tested on: D1.1 (acute T cell leukemia); assay: Cell cytotoxicity assay (CellTiter-Glo), D1.1; format: cell-based; details: T-cell, cell viability
Description: (§2) Cancer cell lines, MV-4-11 (leukemia), P116.c139 (acute T cell leukemia) and D1.1 (acute T cell leukemia), were purchased from ATCC and cultured according to supplier's recommendations. K562 cells (myelogenous leukemia) over-expressing eIF4E, were also used for the cytotoxicity assay. For cells treated for 48 hours, 5000 cells were seeded in 70 μl of growth medium in black, flat-bottom 96-well plate. For cells treated for six days, 1000 cells were seeded in 70 μl of growth medium in black, flat-bottom 96-well plate. […] 50 μl of the diluted compounds was added to the cells and incubated at 37° C. in 5% CO2. After 48 hours or six days treatment, cell viability was determined by CellTiter-Glo Luminescent Cell Viability Assay (Promega, Madison, Wis.). 120 μl of the reagent was added to the cells and luminescence was measured using Tecan Safire Reader. Data was analysed with Graphpad Prism software and the figures represented indicate the half maximal inhibitory concentration (IC50). Error bars denote standard deviation (SD).

[3] = tested on: eIF4E Ser209 phosphorylation in Hela cells; assay: MNK cell-based assay (AlphaScreen SureFire, eIF4E Ser209 phosphorylation); details: Homo sapiens; eIF4E Ser209 phosphorylation, Hela cells, 2 hours; read-out: IC50 Hela
In short: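 Hela cells (30,000/well) exposed to test compound in serum-free medium for 2 h at 37 °C, then lysed. Phospho-Ser209 eIF4E quantified by AlphaScreen SureFire; IC50 obtained by non-linear regression of signal versus log compound concentration.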

Nlgn3 knock-out mice = assay: Ultrasonic vocalization assay in Nlgn3 knock-out mice (autism model); format: in vivo, mouse; details: 50 microgram/kg intraperitoneal, 30 h and 5 h before testing
Description: as §1, with “Impact of MNK inhibitors on autism-related behavior was tested in a knock-out mouse model for autism. Nlgn3 knock-out mouse model a human mutation identified in patients with autism^73-74. Compounds were applied in DMSO using intraperitoneal injection in adult male mice (2-4 months of age). Two injections were performed, the first 30 h and a second one 5 h before testing.” left out, “The apparatus consisted of an arena (40 cm×20 cm) surrounded by 30-cm-high walls made of grey plastic and equipped with a microphone and a video camera.” left out, “Male mice were acclimatized for 3 min in the chamber.” left out, “All animal experiments were approved by the cantonal veterinary office Basel-Stadt, Switzerland.” left out

[4] = tested on: eIF4E phosphorylation in K562 cells; assay: Western blot of eIF4E phosphorylation in K562 cells; format: cell-based; details: various concentrations, 24 h
Description: (§3) K562 cell line was obtained from the ATCC, and grown in RPMI supplemented with 10% FCS, L-glutamine, and penicillin/streptomycin.
(§4) Exponentially growing cells were plated at 2×10^5 cells/ml, and whole cell lysate processed for western blot analysis using antibodies recognizing eIF4E, phospho-eIF4E (Cell signaling Technology),

BCR-ABL = target: T1, BCR-ABL (Homo sapiens, UniProt P00519); assay: Western blot of CrK1 phosphorylation (BCR-ABL activity) in K562 cells; format: cell-based
T1 construct: host or cells: K562; the other entry of the earlier key: BCR (P11274, Breakpoint cluster region protein)
Description: as §3, §4

[5] = tested on: MV-4-11, P116.c139 and D1.1 cell lines; assay: Cell cytotoxicity assay, the three test cell lines taken together; format: cell-based; details: Homo sapiens, MV4-11; regardless of the treatment duration (48 hours or 6 days)
Description: as §2

T1 sequence (P00519 with tags, fused parts or gaps): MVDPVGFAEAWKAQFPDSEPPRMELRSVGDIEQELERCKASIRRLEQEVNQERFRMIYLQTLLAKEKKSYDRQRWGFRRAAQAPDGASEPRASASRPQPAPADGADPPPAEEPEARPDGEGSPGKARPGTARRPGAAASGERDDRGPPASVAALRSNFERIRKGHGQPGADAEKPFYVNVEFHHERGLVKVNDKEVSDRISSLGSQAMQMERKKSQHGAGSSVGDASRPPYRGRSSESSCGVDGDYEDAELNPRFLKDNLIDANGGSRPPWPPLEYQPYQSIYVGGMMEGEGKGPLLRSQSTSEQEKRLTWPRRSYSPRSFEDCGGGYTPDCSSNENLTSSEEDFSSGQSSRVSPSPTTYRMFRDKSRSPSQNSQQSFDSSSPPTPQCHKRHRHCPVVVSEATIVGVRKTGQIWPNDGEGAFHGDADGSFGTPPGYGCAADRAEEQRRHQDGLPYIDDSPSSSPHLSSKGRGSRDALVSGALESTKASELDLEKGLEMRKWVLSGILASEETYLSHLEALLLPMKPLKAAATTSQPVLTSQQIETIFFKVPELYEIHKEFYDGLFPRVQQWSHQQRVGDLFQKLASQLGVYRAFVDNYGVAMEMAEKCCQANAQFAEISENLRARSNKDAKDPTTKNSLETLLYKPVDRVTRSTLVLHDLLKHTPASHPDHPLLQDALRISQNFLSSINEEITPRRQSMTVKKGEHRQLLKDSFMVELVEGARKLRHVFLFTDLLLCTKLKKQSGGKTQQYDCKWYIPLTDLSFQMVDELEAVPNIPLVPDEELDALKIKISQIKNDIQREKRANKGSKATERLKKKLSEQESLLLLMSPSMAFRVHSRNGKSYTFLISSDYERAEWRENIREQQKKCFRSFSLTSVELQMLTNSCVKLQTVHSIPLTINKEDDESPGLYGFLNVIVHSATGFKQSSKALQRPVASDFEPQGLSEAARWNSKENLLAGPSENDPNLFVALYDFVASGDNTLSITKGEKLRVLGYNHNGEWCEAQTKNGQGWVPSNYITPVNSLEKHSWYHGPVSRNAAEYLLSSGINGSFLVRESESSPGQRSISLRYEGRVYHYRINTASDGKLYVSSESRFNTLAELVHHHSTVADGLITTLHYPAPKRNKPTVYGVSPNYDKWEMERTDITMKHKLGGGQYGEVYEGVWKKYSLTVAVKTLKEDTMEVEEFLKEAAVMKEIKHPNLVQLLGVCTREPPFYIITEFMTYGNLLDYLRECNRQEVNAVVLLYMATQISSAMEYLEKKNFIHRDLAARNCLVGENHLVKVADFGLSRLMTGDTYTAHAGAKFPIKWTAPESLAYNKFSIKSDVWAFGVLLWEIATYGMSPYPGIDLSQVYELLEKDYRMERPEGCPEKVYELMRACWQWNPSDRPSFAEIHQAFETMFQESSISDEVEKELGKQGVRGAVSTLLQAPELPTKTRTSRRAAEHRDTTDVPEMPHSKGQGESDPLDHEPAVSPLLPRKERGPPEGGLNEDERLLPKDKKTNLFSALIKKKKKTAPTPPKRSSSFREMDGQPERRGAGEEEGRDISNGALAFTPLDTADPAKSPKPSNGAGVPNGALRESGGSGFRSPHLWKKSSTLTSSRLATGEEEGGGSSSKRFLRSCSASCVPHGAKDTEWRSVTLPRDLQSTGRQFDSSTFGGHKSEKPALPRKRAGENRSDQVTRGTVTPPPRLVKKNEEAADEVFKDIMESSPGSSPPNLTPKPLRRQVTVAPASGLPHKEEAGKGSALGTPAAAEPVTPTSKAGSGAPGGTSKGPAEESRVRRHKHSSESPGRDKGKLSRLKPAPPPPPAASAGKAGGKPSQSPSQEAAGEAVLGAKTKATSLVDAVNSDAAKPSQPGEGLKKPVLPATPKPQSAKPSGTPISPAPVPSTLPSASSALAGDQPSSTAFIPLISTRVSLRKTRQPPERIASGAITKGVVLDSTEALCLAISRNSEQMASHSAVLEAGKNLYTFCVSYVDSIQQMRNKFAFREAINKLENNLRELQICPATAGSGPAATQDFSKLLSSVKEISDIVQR

N#Cc1ccc(-c2cnc3ccc(-c4ccc(C(=O)N5CCOCC5)cc4)nn23)cc1 [Example 62, 4-(6-(4-(morpholine-4-carbonyl)phenyl)imidazo[1,2-b]pyridazin-3-yl)benzonitrile]
eIF4G levels in brain sections from Nlgn3 knock-out mice [1]: elevated eIF4G levels | eIF4G levels in brain sections from Nlgn3 knock-out mice ([1]; listed as ECT7168): elevation in eIF4G levels | IC50 ([2]; 144 h, 6 days, read-out: IC50 after 6 days of treatment, D1.1): 1700 nM | IC50 ([2]; 48 hours, read-out: IC50 after 48 hours of treatment, D1.1): 1600 nM | IC50 [3]: < 1000 nM | ultrasonic vocalizations of Nlgn3 knock-out male mice (autism-related behavior) (Nlgn3 knock-out mice): improves autism-relevant behavior | ultrasonic vocalizations of Nlgn3 knock-out male mice (autism-related behavior) (Nlgn3 knock-out mice; listed as ETC7168): robust elevation of ultrasonic vocalizations | eIF4E phosphorylation in K562 (BC-CML cell line), Western blot [4]: prevent eIF4E phosphorylation; also recorded: decrease in eIF4E phosphorylation | BCR-ABL activity (phosphorylation of CrK1) in K562 cells (BCR-ABL): decrease in BCR-ABL activity | IC50 [5]: ≤ 2000 nM
